Assay results from PMC3946342, “Evaluating Molecular Mechanism of Hypotensive Peptides Interactions with Renin and Angiotensin Converting Enzyme” (PLoS ONE, 2014).
Where “and” joins values, the source holds several entries; their conditions need not be identical. Equal values may be shown once. Residues, ends and D or L forms follow the SMILES beside them.

Columns and labels:
[1] = tested on: ACE; conditions: cited from earlier work
[2] = target: T1, Rabbit lung ACE (Oryctolagus cuniculus, UniProt P12822); experiment: Kinetics of ACE inhibition (Lineweaver-Burk, FAPGG substrate); format: biochemical
T1 construct: Rabbit lung ACE (A6778, 98% purity); purchased Sigma-Aldrich A6778; host or cells: rabbit lung (tissue-derived)
T1 sequence (P12822 34-1310): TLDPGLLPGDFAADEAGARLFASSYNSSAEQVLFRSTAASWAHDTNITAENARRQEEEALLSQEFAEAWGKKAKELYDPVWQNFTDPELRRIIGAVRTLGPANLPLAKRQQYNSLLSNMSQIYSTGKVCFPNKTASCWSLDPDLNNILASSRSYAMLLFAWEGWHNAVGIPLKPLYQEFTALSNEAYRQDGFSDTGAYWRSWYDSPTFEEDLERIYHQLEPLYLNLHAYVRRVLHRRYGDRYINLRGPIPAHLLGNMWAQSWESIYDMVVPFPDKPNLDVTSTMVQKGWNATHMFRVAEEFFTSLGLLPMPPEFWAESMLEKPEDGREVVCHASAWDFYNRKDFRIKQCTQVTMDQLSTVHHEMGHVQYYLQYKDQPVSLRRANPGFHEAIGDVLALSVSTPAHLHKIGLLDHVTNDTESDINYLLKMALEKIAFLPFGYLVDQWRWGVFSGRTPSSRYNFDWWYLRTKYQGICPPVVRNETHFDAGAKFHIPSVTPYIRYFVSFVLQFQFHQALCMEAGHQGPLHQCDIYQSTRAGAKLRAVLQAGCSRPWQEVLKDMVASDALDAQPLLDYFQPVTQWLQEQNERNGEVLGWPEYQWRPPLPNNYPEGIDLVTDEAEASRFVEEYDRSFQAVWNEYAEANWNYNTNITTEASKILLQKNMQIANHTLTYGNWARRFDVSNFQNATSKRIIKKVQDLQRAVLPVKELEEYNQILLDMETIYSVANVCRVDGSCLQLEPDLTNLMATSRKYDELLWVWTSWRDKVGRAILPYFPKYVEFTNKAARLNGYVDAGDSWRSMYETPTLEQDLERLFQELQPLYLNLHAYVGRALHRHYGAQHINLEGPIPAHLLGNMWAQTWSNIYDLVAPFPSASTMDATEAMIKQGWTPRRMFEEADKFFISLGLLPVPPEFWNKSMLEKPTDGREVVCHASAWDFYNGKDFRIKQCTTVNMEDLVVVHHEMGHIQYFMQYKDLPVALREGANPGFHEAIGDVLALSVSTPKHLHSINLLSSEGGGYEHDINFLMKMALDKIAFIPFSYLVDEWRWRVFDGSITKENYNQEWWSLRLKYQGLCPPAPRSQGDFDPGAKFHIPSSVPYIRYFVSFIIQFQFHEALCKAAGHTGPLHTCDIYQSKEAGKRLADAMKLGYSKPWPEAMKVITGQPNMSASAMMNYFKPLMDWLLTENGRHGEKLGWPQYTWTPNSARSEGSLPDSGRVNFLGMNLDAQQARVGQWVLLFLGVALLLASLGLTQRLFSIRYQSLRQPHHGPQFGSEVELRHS
Procedure: (§1) Kinetics of ACE and renin inhibition was determined using a previously described method. For ACE inhibition, the substrate (FAPGG) concentrations were 0.0625, 0.125, 0.25 and 0.5 mM, while renin substrate concentrations were 1.25, 2.5, 5 and 10 µM. Peptide concentrations used during the assays are shown in Tables 1 and 2 for the kinetics of ACE and renin inhibition, respectively. The modes of ACE and renin inhibition were determined from Lineweaver-Burk plots while inhibition parameters (Vmax and Km) were calculated, respectively, as the Y and X-axis intercepts of the primary plot. Ki was calculated as the X-axis intercept of the line obtained from a secondary plot of Lineweaver-Burk line slopes versus peptide concentrations.

[3] = target: T2, renin (Homo sapiens, UniProt P00797); experiment: Kinetics of renin inhibition (Lineweaver-Burk); format: biochemical; conditions: for Ki / K′m / V′max: renin; for Ki: secondary plot of Lineweaver-Burk slopes, read-out: Ki (enzyme-inhibitor dissociation constant); for Mode of renin inhibition: double reciprocal plot
T2 construct: purchased Cayman Chemicals 10006217
T2 sequence (P00797 67-406): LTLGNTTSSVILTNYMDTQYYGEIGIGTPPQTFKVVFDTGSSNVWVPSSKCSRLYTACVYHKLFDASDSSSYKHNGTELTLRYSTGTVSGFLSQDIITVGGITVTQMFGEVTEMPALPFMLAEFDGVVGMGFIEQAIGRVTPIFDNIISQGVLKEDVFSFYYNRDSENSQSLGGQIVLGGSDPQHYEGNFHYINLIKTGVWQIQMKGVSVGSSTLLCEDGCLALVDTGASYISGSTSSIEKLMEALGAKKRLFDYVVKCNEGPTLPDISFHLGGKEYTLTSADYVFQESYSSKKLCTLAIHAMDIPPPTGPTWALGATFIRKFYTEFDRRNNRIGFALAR
Procedure: as §1

[4] = tested on: renin; design: method as in earlier work; conditions: previously determined ref 8; read-out: IC50 for renin inhibition; cited from earlier work
[5] = target: T2, renin; experiment: Intrinsic fluorescence emission of renin with peptides; format: binding
Procedure: Fluorescence emission spectra were obtained using the method of Li et al.. Briefly, 25 µL of 1 U/mL ACE (prepared in 50 mM Tris–HCl buffer, pH 7.5, containing 300 mM NaCl) or 25 µL of 250 µg/mL renin (prepared in 50 mM Tris–HCl buffer, pH 8.0, containing 100 mM NaCl) was mixed with 50 µL of peptide solution and 25 µL of the appropriate buffer to yield a 100 µL assay solution. Emission spectra were recorded at 25°C using a micro quartz cell (100 µL capacity) on a JASCO FP-6300 spectrofluorimeter (JASCO, Tokyo, Japan). ACE or renin assay solutions were excited at 280 nm and emission recorded from 290 to 450 nm. Emission spectrum of the respective buffer, peptides and enzymes was subtracted from the emission spectrum of each assay solution.

[6] = target: T2, renin; experiment: Far-UV circular dichroism of renin-peptide complex; conditions: for Unordered / α-helix / β-sheet / β-turn: renin
Procedure: (§2) Far-UV CD spectra were obtained using a JASCO J-815 spectropolarimeter (JASCO, Tokyo, Japan) under constant nitrogen flush according to the method of Omoni and Aluko [11]. A 0.5 mm pathlength quartz cell was used for the far UV (190–240 nm) measurements and each final spectrum was the average of three consecutive scans with simultaneous subtraction of the respective buffer, peptides and enzymes spectrum. For determining the peptide-enzyme interaction spectra, 150 µL of 1 U/mL ACE (prepared in 50 mM Tris–HCl buffer, pH 7.5, containing 300 mM NaCl) or 150 µL of 250 µg/mL renin (prepared in 50 mM Tris–HCl buffer, pH 8.0, containing 100 mM NaCl) was mixed with 50 µL of a peptide solution. The far-UV CD spectra in the 200–240 nm range were analyzed for secondary structure fractions using the online DICHROWEB procedure.

[7] = target: T3, ACE (Oryctolagus cuniculus, UniProt P12822); experiment: Far-UV circular dichroism of ACE-peptide complex; design: species or system Rabbit
T3 construct: Rabbit lung ACE (A6778, 98% purity); purchased Sigma-Aldrich A6778; host or cells: rabbit lung (tissue-derived)
T3 sequence (P12822 34-1310): T1 sequence (P12822 34-1310)
Procedure: as §2

[8] = tested on: ACE; design: method as in earlier work; conditions: previously determined ref 8; read-out: IC50 for ACE inhibition; cited from earlier work

Molecule: FEDYVPLSCF
- Mode of ACE inhibition [1]: mixed-type

Molecule: FNVPLYE
- Mode of ACE inhibition [1]: mixed-type

Molecule: AWLHPGAPKVF
- Mode of ACE inhibition [1]: competitive

Molecule: CC(C)C[C@H](NC(=O)[C@H](C)NC(=O)[C@@H](N)CCCNC(=N)N)C(=O)N1CCC[C@H]1C(=O)O [RALP, Arg-Ala-Leu-Pro] (H-RALP-OH)
- Ki ([2]; ACE, secondary plot of Lineweaver-Burk slopes, read-out: Ki (enzyme-inhibitor dissociation constant)): 104 µM
- Ki [3]: 0.285 mM

Molecule: CC(C)C[C@H](N)C(=O)N[C@@H](Cc1ccc(O)cc1)C(=O)O [LY, Leu-Tyr]
- IC50 [4]: 1.87 mM
- λmax of renin emission ([5]; 0.170 mM peptide): 326 nm
- Unordered ([6]; peptide 12.5 µg/mL): 30.37±0.23^F %
- α-helix ([6]; peptide 12.5 µg/mL): 4.63±0.12^B %
- β-sheet ([6]; peptide 12.5 µg/mL): 44.41±0.61^B %
- β-turn ([6]; peptide 12.5 µg/mL): 19.41±0.17^B %
- Unordered ([6]; peptide 25 µg/mL): 74.87% and 74.87±0.31^B %
- α-helix ([6]; peptide 25 µg/mL): 2.63±0.32^C %
- β-sheet ([6]; peptide 25 µg/mL): 4.33±0.32^E %
- β-turn ([6]; peptide 25 µg/mL): 19.73±1.45^B %
- Mode of renin inhibition [3]: uncompetitive
- K′m ([3]; LY 0.8493 mM): 2.45 µM
- V′max ([3]; LY 0.8493 mM): 17.74 FI/min
- K′m ([3]; LY 1.6986 mM): 3.11 µM
- V′max ([3]; LY 1.6986 mM): 17.63 FI/min
- Ki [3]: 2.24 mM

Molecule: C[C@@H](O)[C@H](N)C(=O)N[C@@H](Cc1ccccc1)C(=O)O [TF, Thr-Phe] (H-Thr-Phe-OH; N-terminus and C-terminus assumed)
- K′m ([2]; ACE, TF 0.1887 mM): 1.0088 mM
- V′max ([2]; ACE, TF 0.1887 mM): 0.0185 ΔA/min
- K′m ([2]; ACE, TF 0.7510 mM): 0.5546 mM
- V′max ([2]; ACE, TF 0.7510 mM): 0.0097 ΔA/min
- Mode of ACE inhibition ([2]; Lineweaver-Burk plots): mixed-type
- IC50 [4]: 3.06 mM
- λmax of renin emission ([5]; 0.047 mM peptide, 328.5 nm without peptide): 326 nm
- λmax of renin emission ([5]; 0.094 mM peptide, 328.5 nm without peptide): 327 nm
- Decrease in FI ([5]; renin paragraph (printed ACE FI), LY at 0.170 mM, concentration for TF, RALP not given): 47%
- Unordered ([7]; peptide 12.5 µg/mL): 22.31±2.25^E %
- α-helix ([7]; peptide 12.5 µg/mL): 16.55±0.49^B %
- β-sheet ([7]; peptide 12.5 µg/mL): 41.67±2.17% and 41.67±2.17^A %
- β-turn ([7]; peptide 12.5 µg/mL): 16.97±0.31^C %
- Unordered ([7]; peptide 25 µg/mL): 39.9±1.56^B %
- α-helix ([7]; peptide 25 µg/mL): 13.43±0.72^C %
- β-sheet ([7]; peptide 25 µg/mL): 29.17±0.86% and 29.17±0.86^B %
- β-turn ([7]; peptide 25 µg/mL): 17.33±0.64^C %
- IC50 [8]: 810 µM
- Factor of increase of unordered fraction in renin ([6]; 0.094 mM peptide): 2.25
- Factor of reduction of β-sheet fraction in renin ([6]; 0.094 mM peptide): ~6
- Unordered ([6]; peptide 12.5 µg/mL): 28.91±0.25^G %
- α-helix ([6]; peptide 12.5 µg/mL): 2.91±0.26^C %
- β-sheet ([6]; peptide 12.5 µg/mL): 46.97±0.31^A %
- β-turn ([6]; peptide 12.5 µg/mL): 21.37±0.06^A %
- Unordered ([6]; peptide 25 µg/mL): 72.25±0.21^C %
- α-helix ([6]; peptide 25 µg/mL): 0.95±0.07^D %
- β-sheet ([6]; peptide 25 µg/mL): 7.91±0.85^D %
- β-turn ([6]; peptide 25 µg/mL): 18.95±0.21^B %
- Mode of renin inhibition [3]: non-competitive
- K′m ([3]; TF 0.9387 mM): 4.78 µM
- V′max ([3]; TF 0.9387 mM): 25.89 FI/min
- K′m ([3]; TF 3.7551 mM): 4.41 µM
- V′max ([3]; TF 3.7551 mM): 17.20 FI/min

Molecule: RMLGQTP
- Mode of ACE inhibition [1]: mixed-type
